# Reference: US20100267561A1, “HERBICIDAL PYRIDAZINONE DERIVATIVES” (priority 2007, published 2010)
# How the values were obtained:
# Type in all cases: in vivo
# [1] = system: velvetleaf (Abutilon theophrasti); test: Test B pre-/postemergence plant response
# In short: (§1)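 Visual scoring from 0 (no effect) to 100 (complete control) against untreated controls was done 13 to 15 days after greenhouse treatment. Chemicals were formulated in a surfactant-containing non-phytotoxic solvent and applied to soil preemergence or to 1- to 4-leaf (2-18 cm) plants postemergence.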
# [2] = system: cocklebur (Xanthium strumarium); test: Test B pre-/postemergence plant response
# In short: as §1
# [3] = system: large crabgrass (Digitaria sanguinalis); test: Test B pre-/postemergence plant response
# In short: as §1
# soybean (Glycine max) = test: Test B pre-/postemergence plant response
# In short: as §1
# [4] = system: bermudagrass (Cynodon dactylon); test: Test B pre-/postemergence plant response
# In short: as §1
# wild oat (Avena fatua) = test: Test B pre-/postemergence plant response
# In short: as §1
# [5] = system: catchweed bedstraw (Galium aparine); test: Test B pre-/postemergence plant response; conditions: Preemergence
# In short: as §1
# [6] = system: woolly cupgrass (Eriochloa villosa); test: Test B pre-/postemergence plant response
# In short: as §1
# [7] = system: wheat (Triticum aestivum); test: Test B pre-/postemergence plant response
# In short: as §1
# [8] = system: downy bromegrass (Bromus tectorum); test: Test B pre-/postemergence plant response
# In short: as §1
# [9] = system: ducksalad (Heteranthera limosa); test: Test B flooded paddy test plant response
# In short: (§2)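 Paddy-water application to 2-leaf plants in pots held under 3 cm of flooding; response is a 0–100 visual control rating against controls after 13 to 15 days, and a dash marks a missing result.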
# rice (Oryza sativa) = test: Test B flooded paddy test plant response
# In short: as §2
# [10] = system: umbrella sedge (Cyperus difformis); test: Test B flooded paddy test plant response
# In short: as §2
# [11] = system: barnyardgrass (Echinochloa crus-galli); test: Test B flooded paddy test plant response
# In short: as §2
# [12] = Postemergence, 31 g ai/ha, scale 0 to 100, 0 no effect, 100 complete control
# [13] = Postemergence, 62 g ai/ha, scale 0 to 100
# [14] = Postemergence, 125 g ai/ha, scale 0 to 100
# [15] = Postemergence, 250 g ai/ha, scale 0 to 100
# [16] = Preemergence, 31 g ai/ha, 0 to 100 scale, 0 no effect, 100 complete control
# [17] = Preemergence, 62 g ai/ha, scale 0 to 100
# [18] = Preemergence, 125 g ai/ha, scale 0 to 100
# [19] = Preemergence, 250 g ai/ha, scale 0 to 100
# [20] = Flood (flooded paddy test), 62 g ai/ha, scale 0 to 100, 0 no effect, 100 complete control
# [21] = Flood (flooded paddy test), 125 g ai/ha, scale 0 to 100, 0 no effect, 100 complete control
# [22] = Flood (flooded paddy test), 250 g ai/ha, scale 0 to 100, 0 no effect, 100 complete control
# [23] = Flood, 31 g ai/ha, scale 0 to 100
compound,measurement,setting,value
CCc1cc(-c2ccc(C(F)(F)F)cc2)nn1-c1c(O)c(C)nn(C)c1=O [Compound 16],"Plant response rating, Velvetleaf",[1]; [12],0
same,"Plant response rating, Velvetleaf",[1]; [13],0
same,"Plant response rating, Velvetleaf",[1]; [14],0
same,"Plant response rating, Velvetleaf",[1]; [15],0
same,"Plant response rating, Velvetleaf",[1]; [16],0
same,"Plant response rating, Velvetleaf",[1]; [17],0
same,"Plant response rating, Velvetleaf",[1]; [18],0
same,"Plant response rating, Velvetleaf",[1]; [19],0
same,"Plant response rating, Cocklebur",[2]; [12],0
same,"Plant response rating, Cocklebur",[2]; [13],0
same,"Plant response rating, Cocklebur",[2]; [14],0
same,"Plant response rating, Cocklebur",[2]; [15],0
same,"Plant response rating, Cocklebur",[2]; [16],0
same,"Plant response rating, Cocklebur",[2]; [17],0
same,"Plant response rating, Cocklebur",[2]; [18],0
same,"Plant response rating, Cocklebur",[2]; [19],0
same,"Plant response rating, Crabgrass, Large",[3]; [12],95
same,"Plant response rating, Crabgrass, Large",[3]; [13],95
same,"Plant response rating, Crabgrass, Large",[3]; [14],100
same,"Plant response rating, Crabgrass, Large",[3]; [15],100
same,"Plant response rating, Crabgrass, Large",[3]; [16],0
same,"Plant response rating, Crabgrass, Large",[3]; [17],0
same,"Plant response rating, Crabgrass, Large",[3]; [18],20
same,"Plant response rating, Crabgrass, Large",[3]; [19],40
same,"Plant response rating, Soybean",soybean (Glycine max); [12],0
same,"Plant response rating, Soybean",soybean (Glycine max); [13],0
same,"Plant response rating, Soybean",soybean (Glycine max); [14],0
same,"Plant response rating, Soybean",soybean (Glycine max); [15],0
same,"Plant response rating, Soybean",soybean (Glycine max); [19],0
same,Bermudagrass plant response rating,"[4]; 250 g ai/ha, preemergence, 0-100 scale",100
same,"Plant response rating, Bermudagrass",[4]; [12],65
same,"Plant response rating, Bermudagrass",[4]; [13],100
same,"Plant response rating, Bermudagrass",[4]; [14],100
same,"Plant response rating, Bermudagrass",[4]; [15],100
same,"Plant response rating, Bermudagrass",[4]; [16],0
same,"Plant response rating, Bermudagrass",[4]; [17],0
same,"Plant response rating, Bermudagrass",[4]; [18],98
same,"Plant response rating, Oat, Wild",wild oat (Avena fatua); [12],95
same,"Plant response rating, Oat, Wild",wild oat (Avena fatua); [13],100
same,"Plant response rating, Oat, Wild",wild oat (Avena fatua); [14],100
same,"Plant response rating, Oat, Wild",wild oat (Avena fatua); [15],100
same,"Plant response rating, Oat, Wild",wild oat (Avena fatua); [16],90
same,"Plant response rating, Oat, Wild",wild oat (Avena fatua); [17],95
same,"Plant response rating, Oat, Wild",wild oat (Avena fatua); [18],98
same,"Plant response rating, Oat, Wild",wild oat (Avena fatua); [19],100
same,"Plant response rating, Galium","[5]; 31 g ai/ha, 0 to 100 scale, 0 no effect, 100 complete control",0
same,"Plant response rating, Galium","[5]; 62 g ai/ha, scale 0 to 100",0
same,"Plant response rating, Galium","[5]; 125 g ai/ha, scale 0 to 100",0
same,"Plant response rating, Galium","[5]; 250 g ai/ha, scale 0 to 100",0
same,"Plant response rating, Cupgrass, Woolly",[6]; [12],80
same,"Plant response rating, Cupgrass, Woolly",[6]; [13],95
same,"Plant response rating, Cupgrass, Woolly",[6]; [14],100
same,"Plant response rating, Cupgrass, Woolly",[6]; [15],100
same,"Plant response rating, Cupgrass, Woolly",[6]; [16],0
same,"Plant response rating, Cupgrass, Woolly",[6]; [17],25
same,"Plant response rating, Cupgrass, Woolly",[6]; [18],70
same,"Plant response rating, Cupgrass, Woolly",[6]; [19],95
same,"Plant response rating, Wheat",[7]; [12],95
same,"Plant response rating, Wheat",[7]; [13],98
same,"Plant response rating, Wheat",[7]; [14],100
same,"Plant response rating, Wheat",[7]; [15],100
same,"Plant response rating, Wheat",[7]; [16],15
same,"Plant response rating, Wheat",[7]; [17],90
same,"Plant response rating, Wheat",[7]; [18],98
same,"Plant response rating, Wheat",[7]; [19],100
same,"Plant response rating, Bromegrass, Downy",[8]; [12],60
same,"Plant response rating, Bromegrass, Downy",[8]; [13],70
same,"Plant response rating, Bromegrass, Downy",[8]; [14],90
same,"Plant response rating, Bromegrass, Downy",[8]; [15],100
same,"Plant response rating, Bromegrass, Downy",[8]; [16],90
same,"Plant response rating, Bromegrass, Downy",[8]; [17],100
same,"Plant response rating, Bromegrass, Downy",[8]; [18],100
same,"Plant response rating, Bromegrass, Downy","[8]; Preemergence, 250 g ai/ha, scale 0 to 100 (0 no effect, 100 complete control)",100
same,"Plant response rating, Ducksalad",[9]; [20],0
same,"Plant response rating, Ducksalad",[9]; [21],0
same,"Plant response rating, Ducksalad",[9]; [22],0
same,"Plant response rating, Ducksalad",[9]; [23],0
same,"Plant response rating, Rice",rice (Oryza sativa); [20],20
same,"Plant response rating, Rice",rice (Oryza sativa); [21],45
same,"Plant response rating, Rice",rice (Oryza sativa); [22],80
same,"Plant response rating, Rice",rice (Oryza sativa); [23],0
same,"Plant response rating, Sedge, Umbrella",[10]; [20],30
same,"Plant response rating, Sedge, Umbrella",[10]; [21],30
same,"Plant response rating, Sedge, Umbrella",[10]; [22],45
same,"Plant response rating, Sedge, Umbrella",[10]; [23],0
same,"Plant response rating, Barnyardgrass",[11]; [20],20
same,"Plant response rating, Barnyardgrass",[11]; [21],40
same,"Plant response rating, Barnyardgrass",[11]; [22],60
same,"Plant response rating, Barnyardgrass",[11]; [23],15
